Results on one molecule are retold here after patent US20060025458A1, “Alkylammonium compounds as antifungal and antitrypanosomal agents” (University of Connecticut, priority 2004, published 2006).

Data set [1] has as its system de novo CDP-choline pathway (PtdCho synthesis from choline). The data set is described as follows: Incorporation of labeled choline into PtdCho in P. falciparum-infected erythrocytes. In kind it is cell-based, Plasmodium falciparum. The protocol: FIG. 10A. […] 5-6×10^7 synchronized P. falciparum-infected erythrocytes (7% trophozoite stage) were pre-incubated at 4% haematocrit for 1 h in RPMI-based medium containing the indicated concentration of G25 before adding 30 μM [methyl-^3H]-choline (334 mCi/mmol). After incubation at 37° C. for 3 h, the cellular lipids were extracted and fractionated on TLC plates for quantification of radioactivity in PtdCho (black squares).
Labeling Studies and Phospholipid Analysis in P. falciparum: Nigerian strains of P. falciparum were asexually cultured in the presence of basic medium (RPMI 1640 supplemented with 25 mM Hepes, pH 7.4) and 10% AB^+ human serum (Trager and Jensen, 1976). Parasite synchronization was obtained with three successive 5% sorbitol treatments (Lambros and Vanderberg, 1979). Synchronized P. falciparum-infected erythrocytes (7-10% parasitemia, trophozoites) were pre-incubated for 1 hour at 37° C. at 4% hematocrit in 2 ml (final volume) basic medium in the absence or the presence of different concentrations of the compound G25. The appropriate radioactive precursor of lipid metabolism was added followed by further 3 h of incubation. Radioactive precursors were used as follows: 30 μM [methyl-^3H]-choline (334 mCi/mmol), 2 μM [^3H]-ethanolamine (2 Ci/mmol) and 10 μM [3-^14C]-serine (57 mCi/mmol). Following incubation with radiolabeled precursors, cells were concentrated by centrifugation at 1,200×g for 5 min at 4° C., washed twice and the cellular lipids were extracted by a mixture of chloroform/methanol (Folch, et al., 1957) and the organic phase was evaporated under air. […] The silica gel of the lipid spots were scraped directly into scintillation vials containing 3 ml of liquid-scintillation fluid and counted in a Beckman LS 5000 spectrophotometer. The amount of labeled precursors incorporated into cellular lipids (nmol×10^7 cell^−1×h^−1) was computed on the basis of radioactivity incorporated into lipids and the specific activity of the precursors in the incubation medium. […]

The subject of the next data set is C. albicans strain BWP17. The experiment in a line: Growth inhibition of C. albicans in vitro. In kind it is cell-based, Candida albicans. As to conditions: read-out: IC50, C. albicans proliferation. Here is the method: G15, E24 and C35 inhibited at higher concentrations (>10 μM).
Data set [2] has as its system P. falciparum-infected erythrocytes. As to conditions: after 3 h incubation; cited from earlier work.
Data set [3] deals with choline transport in the wild-type strain of S. cerevisiae. The experiment in a line: [methyl-3H]-choline uptake in wild-type S. cerevisiae. In kind it is cell-based, Saccharomyces cerevisiae. Here is the method:
Uptake Assays: Yeast strains were grown in synthetic complete medium supplemented as required to maintain cell growth to an optical density of 0.55-0.65 at 600 nm. Cells were harvested by centrifugation at 3,200×g for 10 min at 4° C., washed twice in cold PBS and resuspended in nitrogen-free medium (SD without ammonium sulfate). […] After 3 min incubation at 30° C. with shaking, transport was immediately stopped by filtration through Whatman GF/C glass microfiber paper. The filters were washed three times with 5 ml ice-cold PBS, air dried, and analyzed in a scintillation counter. For time course uptake, 3-4×10^7 cells were incubated at 30° C. in 1 ml of nitrogen-free medium in the presence of 25 nM [^3H]-T16 (69 Ci/mmol) for different time periods (1, 2, 3, 4, 5, 7, 10 and 15 min) after which 5 ml of cold PBS was added to stop the reaction. Kinetic parameters were determined after 4 min of incubation at 30° C. in the presence of [^3H]-T16 at concentrations ranging from 25 nM to 75 μM (69 Ci - 23 mCi/mol). The samples were centrifuged at 4° C. for 10 min at 1,200×g, the supernatants were discarded and the cells were then resuspended in 5 ml of cold PBS. The reaction was terminated by filtering the cell suspension through GF/C membranes that were pretreated with 15 ml of 0.05% polyethyleneimine (PEI). The filters were washed twice with 5 ml of cold PBS, air dried, and analyzed in a scintillation counter. The cellular accumulation ratio (CAR) was calculated as previously described for T16 and G25 (Biagini, et al., 2003; Wengelnik, et al., 2002).

On to `C[N+]1(CCCCCCCCCCCCCCCC[N+]2(C)CCCC2)CCCC1.[Br-].[Br-]` [G25, 1,16-hexadecamethylenebis[N-methylpyrrolidinium]dibromide], for which the results for the “inhibition of PtdCho biosynthesis” value in data set [1] (1 μM G25) and in data set [1] (10 μM G25) were 56% and “nearly complete inhibition”, respectively. Besides, the “concentration causing a significant decrease of PtdCho biosynthesis” value in data set [1] (trophozoite-infected erythrocytes) was “higher than 0.1 μM”. The IC50 with C. albicans strain BWP17 is around 5 µM. For the same molecule, the “cellular accumulation ratio (CAR)” value in data set [2] was around 300. In addition, the “inhibition of choline transport” value is listed as 50% in data set [3] (20-fold excess over [methyl-3H]-choline) and 84% in data set [3] (100-fold excess over [methyl-3H]-choline).
